In publication PMC11602654 (The Journal of General Physiology, 2024):

Legend:
[1] = target: α1β2γ2L GABAA receptor (Rattus norvegicus, UniProt P62813+P63138); assay: two-electrode voltage clamp, concentration-response; assay type: cell-based
[2] = target: T1, β3(Q64R+G127T) homomeric GABAA receptor (Homo sapiens, UniProt P28472, G152T/Q89R); assay: as above; assay type: cell-based
T1 sequence (P28472 26-473 Q89R/G152T): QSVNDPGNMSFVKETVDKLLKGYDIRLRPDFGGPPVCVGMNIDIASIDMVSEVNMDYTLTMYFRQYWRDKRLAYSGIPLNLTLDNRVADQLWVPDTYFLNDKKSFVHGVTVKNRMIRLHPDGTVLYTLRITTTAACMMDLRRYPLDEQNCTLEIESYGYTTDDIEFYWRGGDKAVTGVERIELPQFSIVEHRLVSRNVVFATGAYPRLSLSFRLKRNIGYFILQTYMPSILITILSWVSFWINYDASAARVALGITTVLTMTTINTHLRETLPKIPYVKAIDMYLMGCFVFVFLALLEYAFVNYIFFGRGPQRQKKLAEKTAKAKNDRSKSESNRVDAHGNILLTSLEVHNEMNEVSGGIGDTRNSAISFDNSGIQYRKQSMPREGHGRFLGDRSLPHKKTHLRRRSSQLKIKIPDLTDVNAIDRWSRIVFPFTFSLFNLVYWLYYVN

EC50 [1] | EC50 [2] | Structure (SMILES)
0.033 ± 0.012 mM | – | O=S(=O)(O)C1CCNCC1 [P4S, piperidine-4-sulfonic acid]
– | 9 ± 0.5 mM | NCCc1c[nH]cn1 [histamine]
